Tested on: 485176-168-R4-J1-PDC complex spheroid growth
Experiment: Anticancer human tumor 485176-168-R4-J1-PDC patient-derived pancreatic adenocarcinoma cell line growth inhibition [RAS]
Settings: for IC50: curve of first compound; for viability, T/C: stronger effect = lower value
In short: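 Multi-cell-type spheroids: tumor cells plus HUVEC endothelial cells and mesenchymal stem cells. RAS-pathway inhibitors were combined with targeted agents, each dosed in half-log steps down from clinical Cmax, or from 10 microM when Cmax was unknown.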

[1] = second compound 0.0316 µM, first compound 0.0316 µM
[2] = second compound 0.0316 µM, first compound 0.1 µM
[3] = second compound 0.0316 µM, first compound 0.316 µM
[4] = second compound 0.0316 µM, first compound 1 µM
[5] = second compound 0.0316 µM, first compound 3.16 µM
[6] = second compound 0.0316 µM, first compound 10 µM
[7] = second compound 0.1 µM, first compound 0.0316 µM
[8] = second compound 0.1 µM, first compound 0.1 µM
[9] = second compound 0.1 µM, first compound 0.316 µM
[10] = second compound 0.1 µM, first compound 1 µM
[11] = second compound 0.1 µM, first compound 3.16 µM
[12] = second compound 0.1 µM, first compound 10 µM
[13] = second compound 0.316 µM, first compound 0.0316 µM
[14] = second compound 0.316 µM, first compound 0.1 µM
[15] = second compound 0.316 µM, first compound 0.316 µM
[16] = second compound 0.316 µM, first compound 1 µM
[17] = second compound 0.316 µM, first compound 3.16 µM
[18] = second compound 0.316 µM, first compound 10 µM
[19] = second compound 1 µM, first compound 0.0316 µM
[20] = second compound 1 µM, first compound 0.1 µM
[21] = second compound 1 µM, first compound 0.316 µM
[22] = second compound 1 µM, first compound 1 µM
[23] = second compound 1 µM, first compound 3.16 µM
[24] = second compound 1 µM, first compound 10 µM
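Also: spheroids exposed to compounds for seven days before readout.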
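For viability, T/C in this document: luminescence viability expressed relative to DMSO vehicle wells set as 100%.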

What does the source list for `CCc1c2c(nc3ccc(O)cc13)-c1cc3c(c(=O)n1C2)COC(=O)[C@]3(O)CC` + C=CC(=O)N1CCN(c2nc(OCC3CCCN3C)nc3c(F)c(-c4nc(N)cc(C)c4C(F)(F)F)c(Cl)cc23)C(C)C1?
IC50 (second compound 0.00316 µM): 0.0133 µM; IC50 (second compound 0.01 µM): 0.0137 µM; IC50 (second compound 0.0316 µM): 0.0111 µM; IC50 (second compound 0.1 µM): 0.0119 µM; IC50 (second compound 0.316 µM): 0.0166 µM; IC50 (second compound 1 µM): 0.0111 µM; viability, T/C (second compound 0.00316 µM, first compound 0.000949 µM): 94.2%; viability, T/C (second compound 0.00316 µM, first compound 0.003 µM): 79.2%; viability, T/C (second compound 0.00316 µM, first compound 0.00949 µM): 58.4%; viability, T/C (second compound 0.00316 µM, first compound 0.03 µM): 31.9%; viability, T/C (second compound 0.00316 µM, first compound 0.0949 µM): 13.9%; viability, T/C (second compound 0.00316 µM, first compound 0.3 µM): 6.54%; viability, T/C (second compound 0.01 µM, first compound 0.000949 µM): 94%; viability, T/C (second compound 0.01 µM, first compound 0.003 µM): 82.6%; viability, T/C (second compound 0.01 µM, first compound 0.00949 µM): 60.6%; viability, T/C (second compound 0.01 µM, first compound 0.03 µM): 28.8%; viability, T/C (second compound 0.01 µM, first compound 0.0949 µM): 12.5%; viability, T/C (second compound 0.01 µM, first compound 0.3 µM): 6.49%; viability, T/C (second compound 0.0316 µM, first compound 0.000949 µM): 84.8%; viability, T/C (second compound 0.0316 µM, first compound 0.003 µM): 97.8%; viability, T/C (second compound 0.0316 µM, first compound 0.00949 µM): 47.5%; viability, T/C (second compound 0.0316 µM, first compound 0.03 µM): 27.8%; viability, T/C (second compound 0.0316 µM, first compound 0.0949 µM): 10.9%; viability, T/C (second compound 0.0316 µM, first compound 0.3 µM): 4.77%; viability, T/C (second compound 0.1 µM, first compound 0.000949 µM): 81.3%; viability, T/C (second compound 0.1 µM, first compound 0.003 µM): 70.1%; viability, T/C (second compound 0.1 µM, first compound 0.00949 µM): 54.1%; viability, T/C (second compound 0.1 µM, first compound 0.03 µM): 34.5%; viability, T/C (second compound 0.1 µM, first compound 0.0949 µM): 11.2%; viability, T/C (second compound 0.1 µM, first compound 0.3 µM): 6.91%; viability, T/C (second compound 0.316 µM, first compound 0.000949 µM): 92.8%; viability, T/C (second compound 0.316 µM, first compound 0.003 µM): 82.4%; viability, T/C (second compound 0.316 µM, first compound 0.00949 µM): 71.8%; viability, T/C (second compound 0.316 µM, first compound 0.03 µM): 27%; viability, T/C (second compound 0.316 µM, first compound 0.0949 µM): 14%; viability, T/C (second compound 0.316 µM, first compound 0.3 µM): 5.42%; viability, T/C (second compound 1 µM, first compound 0.000949 µM): 95.9%; viability, T/C (second compound 1 µM, first compound 0.003 µM): 75%; viability, T/C (second compound 1 µM, first compound 0.00949 µM): 58.7%; viability, T/C (second compound 1 µM, first compound 0.03 µM): 22.7%; viability, T/C (second compound 1 µM, first compound 0.0949 µM): 10.5%; viability, T/C (second compound 1 µM, first compound 0.3 µM): 6.39%

`NC1c2ccccc2OC12CCN(c1cnc3c(N4CCCc5ncccc54)n[nH]c3n1)CC2` (stereo unspecified) + C#Cc1c(F)ccc2cc(O)cc(-c3ncc4c(N5CC6CCC(C5)N6)nc(OCC56CCCN5CC(F)C6)nc4c3F)c12 was tested. Which IC50 (second compound 0.0316 µM) did it give?
Its IC50 is over 10 µM.

What about the IC50 (second compound 0.1 µM) of the same compound?
Its IC50 is over 10 µM.

What about the IC50 (second compound 0.316 µM) of the same compound?
Its IC50 is over 10 µM.

And the IC50 (second compound 1 µM)?
The IC50 was over 10 µM.

What about the IC50 (second compound 3.16 µM) of the same compound?
The IC50 was over 10 µM.

What about the IC50 (second compound 10 µM) of the same compound?
Its IC50 is over 10 µM.

What about the viability, T/C [1] of the same compound?
The viability, T/C was 77%.

And the viability, T/C [2]?
Its viability, T/C is 79.1%.

What about the viability, T/C [3] of the same compound?
The viability, T/C was 78.5%.

What about the viability, T/C [4] of the same compound?
Its viability, T/C is 77.6%.

What about the viability, T/C [5] of the same compound?
The viability, T/C was 75.3%.

What about the viability, T/C [6] of the same compound?
The viability, T/C was 62.4%.

What about the viability, T/C [7] of the same compound?
The viability, T/C was 83%.

And the viability, T/C [8]?
Its viability, T/C is 82.9%.

What about the viability, T/C [9] of the same compound?
Its viability, T/C is 78.7%.

What about the viability, T/C [10] of the same compound?
Its viability, T/C is 76.2%.

And the viability, T/C [11]?
The viability, T/C was 90.1%.

And the viability, T/C [12]?
Its viability, T/C is 62.5%.

What about the viability, T/C [13] of the same compound?
The viability, T/C was 78.4%.

And the viability, T/C [14]?
The viability, T/C was 82.8%.

And the viability, T/C [15]?
Its viability, T/C is 73.9%.

What about the viability, T/C [16] of the same compound?
The viability, T/C was 72.6%.

And the viability, T/C [17]?
The viability, T/C was 79.3%.

What about the viability, T/C [18] of the same compound?
The viability, T/C was 58.8%.

And the viability, T/C [19]?
Its viability, T/C is 78.6%.

And the viability, T/C [20]?
Its viability, T/C is 74%.

What about the viability, T/C [21] of the same compound?
Its viability, T/C is 85.5%.

What about the viability, T/C [22] of the same compound?
Its viability, T/C is 80.6%.

And the viability, T/C [23]?
The viability, T/C was 87.8%.

And the viability, T/C [24]?
Its viability, T/C is 70%.

And the viability, T/C (second compound 3.16 µM, first compound 0.0316 µM)?
The viability, T/C was 79.8%.

What about the viability, T/C (second compound 3.16 µM, first compound 0.1 µM) of the same compound?
Its viability, T/C is 68.9%.

And the viability, T/C (second compound 3.16 µM, first compound 0.316 µM)?
The viability, T/C was 64.5%.

And the viability, T/C (second compound 3.16 µM, first compound 1 µM)?
The viability, T/C was 82.8%.

What about the viability, T/C (second compound 3.16 µM, first compound 3.16 µM) of the same compound?
Its viability, T/C is 80.5%.

What about the viability, T/C (second compound 3.16 µM, first compound 10 µM) of the same compound?
Its viability, T/C is 61.3%.

What about the viability, T/C (second compound 10 µM, first compound 0.0316 µM) of the same compound?
Its viability, T/C is 91.4%.

What about the viability, T/C (second compound 10 µM, first compound 0.1 µM) of the same compound?
Its viability, T/C is 79.2%.

What about the viability, T/C (second compound 10 µM, first compound 0.316 µM) of the same compound?
The viability, T/C was 68.8%.

And the viability, T/C (second compound 10 µM, first compound 1 µM)?
Its viability, T/C is 67.2%.

And the viability, T/C (second compound 10 µM, first compound 3.16 µM)?
The viability, T/C was 91.1%.

And the viability, T/C (second compound 10 µM, first compound 10 µM)?
Its viability, T/C is 64.5%.

How did the IC50 (second compound 0.00316 µM) turn out when `NC1c2ccccc2OC12CCN(c1cnc3c(N4CCCc5ncccc54)n[nH]c3n1)CC2` (stereo unspecified) + C=CC(=O)N1CCN(c2nc(OCC3CCCN3C)nc3c(F)c(-c4nc(N)cc(C)c4C(F)(F)F)c(Cl)cc23)C(C)C1 was run?
The IC50 was over 10 µM.

What about the IC50 (second compound 0.01 µM) of the same compound?
Its IC50 is over 10 µM.

And the IC50 (second compound 0.0316 µM)?
Its IC50 is over 10 µM.

What about the IC50 (second compound 0.1 µM) of the same compound?
The IC50 was over 10 µM.

What about the IC50 (second compound 0.316 µM) of the same compound?
Its IC50 is over 10 µM.

And the IC50 (second compound 1 µM)?
Its IC50 is over 10 µM.

And the viability, T/C (second compound 0.00316 µM, first compound 0.0316 µM)?
Its viability, T/C is 81.4%.

And the viability, T/C (second compound 0.00316 µM, first compound 0.1 µM)?
Its viability, T/C is 77.9%.

What about the viability, T/C (second compound 0.00316 µM, first compound 0.316 µM) of the same compound?
Its viability, T/C is 71.7%.

And the viability, T/C (second compound 0.00316 µM, first compound 1 µM)?
Its viability, T/C is 80.1%.

What about the viability, T/C (second compound 0.00316 µM, first compound 3.16 µM) of the same compound?
The viability, T/C was 77.2%.

And the viability, T/C (second compound 0.00316 µM, first compound 10 µM)?
The viability, T/C was 55.8%.

What about the viability, T/C (second compound 0.01 µM, first compound 0.0316 µM) of the same compound?
Its viability, T/C is 84.1%.

And the viability, T/C (second compound 0.01 µM, first compound 0.1 µM)?
The viability, T/C was 75.3%.

And the viability, T/C (second compound 0.01 µM, first compound 0.316 µM)?
The viability, T/C was 87.9%.

What about the viability, T/C (second compound 0.01 µM, first compound 1 µM) of the same compound?
Its viability, T/C is 70%.

And the viability, T/C (second compound 0.01 µM, first compound 3.16 µM)?
The viability, T/C was 79.1%.

What about the viability, T/C (second compound 0.01 µM, first compound 10 µM) of the same compound?
The viability, T/C was 62.9%.

And the viability, T/C [1]?
The viability, T/C was 82.9%.

And the viability, T/C [2]?
Its viability, T/C is 66.2%.

And the viability, T/C [3]?
Its viability, T/C is 76.7%.

What about the viability, T/C [4] of the same compound?
The viability, T/C was 85.3%.

What about the viability, T/C [5] of the same compound?
The viability, T/C was 72.9%.

What about the viability, T/C [6] of the same compound?
The viability, T/C was 59.1%.

And the viability, T/C [7]?
The viability, T/C was 91.2%.

What about the viability, T/C [8] of the same compound?
Its viability, T/C is 86.5%.

And the viability, T/C [9]?
The viability, T/C was 71%.

And the viability, T/C [10]?
The viability, T/C was 72.6%.

What about the viability, T/C [11] of the same compound?
Its viability, T/C is 84%.

And the viability, T/C [12]?
Its viability, T/C is 81.7%.

What about the viability, T/C [13] of the same compound?
Its viability, T/C is 82.7%.

What about the viability, T/C [14] of the same compound?
Its viability, T/C is 91.5%.

And the viability, T/C [15]?
The viability, T/C was 82.5%.

What about the viability, T/C [16] of the same compound?
Its viability, T/C is 91.5%.

What about the viability, T/C [17] of the same compound?
The viability, T/C was 80.2%.

And the viability, T/C [18]?
The viability, T/C was 61%.

What about the viability, T/C [19] of the same compound?
Its viability, T/C is 91.5%.

What about the viability, T/C [20] of the same compound?
The viability, T/C was 68.8%.

And the viability, T/C [21]?
The viability, T/C was 69.5%.

And the viability, T/C [22]?
The viability, T/C was 72.1%.

And the viability, T/C [23]?
The viability, T/C was 74%.

And the viability, T/C [24]?
The viability, T/C was 66.2%.
